In patent publication US4659825A, “Isomeric O-phosphonylmethyl derivatives of enantiomeric and racemic 9-(2,3-dihydroxypropyl)adenine” (Ceskoslovenska akademie, priority 1983, dated 1987):

Tested on: Pyrrhocoris apterus L.
Assay: Ovicidal activity (chemosterilizing): inhibition of egg hatching in the first and second egg batch after oral administration to adults of both sexes
Assay type: in vivo
Details: drinking water
Method: The test animals were freshly emerged adults of Pyrrhocoris apterus L. and the tested compounds were administered as solutions in drinking water. The concentration 1 mg.ml^-1 corresponded to the dose of 1 mg/g/24 h. Each test was performed on a group of 10 males and 10 females and evaluated according to toxicity and hatchability of the eggs of the first and the second egg batches.

Row | Compound | Inhibition of egg hatching in the first and second egg batch (% inhibition, related to control eggs) (0.01 mg.ml^-1 of water) | Inhibition of egg hatching in the first and second egg batch (% inhibition, related to control eggs) (0.05 mg.ml^-1 of water) | Inhibition of egg hatching in the first and second egg batch (% inhibition, related to control eggs) (0.1 mg.ml^-1 of water) | Inhibition of egg hatching in the first and second egg batch (% inhibition, related to control eggs) (1.0 mg.ml^-1 of water (1 mg.ml^-1 corresponded to the dose of 1 mg/g/24 h))
1 | Nc1ncnc2c1ncn2CC(O)CO (racemic) [compound 3, (RS)-9-(2,3-dihydroxypropyl)adenine] | 0% | 10% | 37% | 100%
2 | Nc1ncnc2c1ncn2CC(O)COCP(=O)(O)O (racemic) [3'-isomer] | – | – | 61% | –
3 | Nc1ncnc2c1ncn2CC(CO)OCP(=O)(O)O (racemic) [2'-isomer] | – | – | 27% | –
